For 16 molecules, IC50 results are on record in patent publication US11091478B2 (Fochon Pharmaceuticals, Ltd., priority 2017, dated 2021).

For one test, the system named is DOHH2 cells. The experiment in a line: Cell proliferation assay (MTS), DOHH2 cells, 120 h. In kind it is cell-based. The gist of the method:
(§1)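 Cells in RPMI-1640 with 10% FBS were seeded at 5000/well, left overnight at 37° C., 5% CO2, then exposed to compound at 10000 down to 1.5 nM (nine concentrations) for 72 h (RS4;11) or 120 h (DOHH2). Viability was read by MTS, 2 h, absorbance at 490/650 nm; IC50 calculated.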

In another test the test system is RS4;11 cells. The experiment in a line: Cell proliferation assay (MTS), RS4;11 cells, 72 h. It is filed as cell-based. Put shortly: as §1

Where two headings read alike, the source gives them in different places.

What is called IC50 is the concentration that inhibits the measured activity by half. On to `COC1CCC([C@@H]2COc3cc(S(=O)(=O)NC(=O)c4ccc(N5CCN(CC6=C(c7ccc(Cl)cc7)CC(C)(C)CC6)CC5)cc4Oc4cnc5[nH]ccc5c4)cc([N+](=O)[O-])c3N2)CC1` (stereo partly drawn) [Example 2-248B, (R)-2-((1H-pyrrolo[2,3-b]pyridin-5-yl)oxy)-4-(4-((4′-chloro-5,5-dimethyl-3,4,5,6-tetra-hydro-[1,1′-biphenyl]-2-yl)methyl)piperazin-1-yl)-N-((3-(4-methoxycyclohexyl)-5-nitro-3,4-dihydro-2H-benzo[b][1,4]oxazin-7-yl)sulfonyl)benzamide], for which the concentration for half-maximal inhibition (IC50) in the test with DOHH2 cells was 14 nM; with RS4;11 cells it was 64 nM.
Turning to `CC1(C)CCC(CN2CCN(c3ccc(C(=O)NS(=O)(=O)c4cc5c(c([N+](=O)[O-])c4)N[C@@H](CCNC(=O)C4CCOCC4)CO5)c(Oc4cnc5[nH]ccc5c4)c3)CC2)=C(c2ccc(Cl)cc2)C1` [Example 2-56, (S)-N-(2-(7-(N-(2-((1H-pyrrolo[2,3-b]pyridin-5-yl)oxy)-4-(4-((4′-chloro-5,5-dimethyl-3,4,5,6-tetrahydro-[1,1′-biphenyl]-2-yl)meth-yl)piperazin-1-yl)benzoyl)sulfamoyl)-5-nitro-3,4-dihydro-2H-benzo[b][1,4]oxazin-3-yl)ethyl)tetrahydro-2H-pyran-4-carboxamide], the IC50 with DOHH2 cells (Homo sapiens, DOHH-2, 120 h) worked out at 571 nM; with RS4;11 cells (Homo sapiens, RS4-11, 72 h) it was 41 nM.
For `CC1(C)CCC(CN2CCN(c3ccc(C(=O)NS(=O)(=O)c4cc5c(c([N+](=O)[O-])c4)N[C@H](CC(=O)N4CCOCC4)C5)c(Oc4cnc5[nH]ccc5c4)c3)CC2)=C(c2ccc(Cl)cc2)C1` [Example 1-24, (S)-2-((1H-pyrrolo[2,3-b]pyridin-5-yl)oxy)-4-(4-((4′-chloro-5,5-dimethyl-3,4,5,6-tetra-hydro-[1,1′-biphenyl]-2-yl)methyl)piperazin-1-yl)-N-((2-(2-morpholino-2-oxoethyl)-7-nitroindolin-5-yl)sulfonyl)benzamide], in that order: 41 nM and 73 nM.
For the molecule `COC1CCC([C@H]2COc3cc(S(=O)(=O)NC(=O)c4ccc(N5CCN(CC6=C(c7ccc(Cl)cc7)CC(C)(C)CC6)CC5)cc4Oc4cnc5[nH]ccc5c4)cc([N+](=O)[O-])c3N2)CC1` (some centres unmarked) [Example 2-247A], the IC50 in the test with DOHH2 cells (Homo sapiens, DOHH-2, 120 h) was determined as 19 nM; in the test with RS4;11 cells (Homo sapiens, RS4-11, 72 h), 24 nM.
In the case of `CC1(C)CCC(CN2CCN(c3ccc(C(=O)NS(=O)(=O)c4cc5c(c([N+](=O)[O-])c4)N[C@H](CC4CCC(O)CC4)CO5)c(Oc4cnc5[nH]ccc5c4)c3)CC2)=C(c2ccc(Cl)cc2)C1` (single isomer, unassigned) [Example 2-239A], the 50% inhibitory concentration (IC50) was 5 nM with DOHH2 cells and 1 nM in the test on RS4;11 cells (Homo sapiens, RS4-11, 72 h).
For the molecule `CC1(C)CCC(CN2CCN(c3ccc(C(=O)NS(=O)(=O)c4cc5c(c([N+](=O)[O-])c4)N[C@H](CN4CCCCC4)CO5)c(Oc4cnc5[nH]ccc5c4)c3)CC2)=C(c2ccc(Cl)cc2)C1` [Example 2-84, (R)-2-((1H-pyrrolo[2,3-b]pyridin-5-yl)oxy)-4-(4-((4′-chloro-5,5-dimethyl-3,4,5,6-tetra-hydro-[1,1′-biphenyl]-2-yl)methyl)piperazin-1-yl)-N-((5-nitro-3-(piperidin-1-ylmethyl)-3,4-dihydro-2H-benzo[b][1,4]oxazin-7-yl)sulfonyl)benzamide], the IC50 with DOHH2 cells (Homo sapiens, DOHH-2, 120 h) stood at 82 nM; in the test on RS4;11 cells (Homo sapiens, RS4-11, 72 h), 26 nM.
Taken in the same sequence, the figures for `C[C@@H]1CNc2c(cc(S(=O)(=O)NC(=O)c3ccc(N4CCN(CC5=C(c6ccc(Cl)cc6)CC(C)(C)CC5)CC4)cc3Oc3cnc4[nH]ccc4c3)cc2[N+](=O)[O-])O1` [Example 2-100, (R)-2-((1H-pyrrolo[2,3-b]pyridin-5-yl)oxy)-4-(4-((4′-chloro-5,5-dimethyl-3,4,5,6-tetra-hydro[1,1′-biphenyl]-2-yl)methyl)piperazin-1-yl)-N-((2-methyl-5-nitro-3,4-dihydro-2H-benzo[b][1,4]oxazin-7-yl)sulfonyl)benza-mide] were 31 nM and 22 nM.
For `CC1(C)CCC(CN2CCN(c3ccc(C(=O)NS(=O)(=O)c4cc5c(c([N+](=O)[O-])c4)N[C@@H](CCN4CCOCC4)CO5)c(Oc4cnc5[nH]ccc5c4)c3)CC2)=C(c2ccc(Cl)cc2)C1` [Example 2-10, (S)-2-((1H-pyrrolo[2,3-b]pyridin-5-yl)oxy)-4-(4-((4′-chloro-5,5-dimethyl-3,4,5,6-tetra-hydro-[1,1′-biphenyl]-2-yl)methyl)piperazin-1-yl)-N-((3-(2-morpholinoethyl)-5-nitro-3,4-dihydro-2H-benzo[b][1,4]oxazin-7-yl)sulfonyl)benzamide], in that order: 28 nM and 9 nM.
Taken in the same sequence, the figures for `CC1(C)CCC(CN2CCN(c3ccc(C(=O)NS(=O)(=O)c4cc5c(c([N+](=O)[O-])c4)N[C@@H](CNC(=O)OC4CCOCC4)CO5)c(Oc4cnc5[nH]ccc5c4)c3)CC2)=C(c2ccc(Cl)cc2)C1` [Example 2-61, tetrahydro-2H-pyran-4-yl (S)-((7-(N-(2-((1H-pyrrolo[2,3-b]pyridin-5-yl)oxy)-4-(4-((4′-chloro-5,5-dimethyl-3,4,5,6-tetrahydro-[1,1′-biphenyl]-2-yl)methyl)piperazin-1-yl)benzoyl)sulfamoyl)-5-nitro-3,4-dihydro-2H-benzo[b][1,4]oxazin-3-yl)methyl)carbamate] were 444 nM and 48 nM.
`CC1(C)CCC(CN2CCN(c3ccc(C(=O)NS(=O)(=O)c4cc5c(c([N+](=O)[O-])c4)N[C@H](C4CCCCC4)CO5)c(Oc4cnc5[nH]ccc5c4)c3)CC2)=C(c2ccc(Cl)cc2)C1` [Example 2-238, (R)-2-((1H-pyrrolo[2,3-b]pyridin-5-yl)oxy)-4-(4-((4′-chloro-5,5-dimethyl-3,4,5,6-tetra-hydro-[1,1′-biphenyl]-2-yl)methyl)piperazin-1-yl)-N-((3-cyclohexyl-5-nitro-3,4-dihydro-2H-benzo[b][1,4]oxazin-7-yl)sulfo-nyl)benzamide]: the half-inhibitory concentration (IC50) in the test with DOHH2 cells (Homo sapiens, DOHH-2, 120 h) turned out to be 18 nM; with RS4;11 cells (Homo sapiens, RS4-11, 72 h) it was 9 nM.
Taken in the same sequence, the figures for `C[C@@H]1CN(CC[C@H]2COc3cc(S(=O)(=O)NC(=O)c4ccc(N5CCN(CC6=C(c7ccc(Cl)cc7)CC(C)(C)CC6)CC5)cc4Oc4cnc5[nH]ccc5c4)cc([N+](=O)[O-])c3N2)CCN1C` [Example 2-46, 2-((1H-pyrrolo[2,3-b]pyridin-5-yl)oxy)-4-(4-((4′-chloro-5,5-dimethyl-3,4,5,6-tetrahydro-[1,1′-biphenyl]-2-yl)methyl)piperazin-1-yl)-N-(((S)-3-(2-((R)-3,4-dimethylpiperazin-1-yl)ethyl)-5-nitro-3,4-dihydro-2H-benzo [b][1,4]oxazin-7-yl)sulfonyl)benzamide] were 7 nM and 1 nM.
Taken in the same sequence, the figures for `CC1(C)CCC(CN2CCN(c3ccc(C(=O)NS(=O)(=O)c4cc5c(c([N+](=O)[O-])c4)N[C@@H](CN4CCC(N=S(C)(C)=O)CC4)CO5)c(Oc4cnc5[nH]ccc5c4)c3)CC2)=C(c2ccc(Cl)cc2)C1` [Example 2-125, (S)-2-((1H-pyrrolo[2,3-b]pyridin-5-yl)oxy)-4-(4-((4′-chloro-5,5-dimethyl-3,4,5,6-tetra-hydro-[1,1′-biphenyl]-2-yl)methyl)piperazin-1-yl)-N-((3-((4-((dimethyl(oxo)-λ^6-sulfanyl-idene)amino)piperidin-1-yl)methyl)-5-nitro-3,4-dihydro-2H-benzo[b][1,4]oxa-zin-7-yl)sulfonyl)benzamide] were 43 nM and 19 nM.
For `CC1(C)CCC(CN2CCN(c3ccc(C(=O)NS(=O)(=O)c4cc([N+](=O)[O-])c5[nH]c(CN6CCOCC6)cc5c4)c(Oc4cnc5[nH]ccc5c4)c3)CC2)=C(c2ccc(Cl)cc2)C1` [Example 1-21, 2-((1H-pyrrolo[2,3-b]pyridin-5-yl)oxy)-4-(4-((4′-chloro-5,5-dimethyl-3,4,5,6-tetra-hydro-[1,1′-biphenyl]-2-yl)methyl)piperazin-1-yl)-N-((2-(morpholino-methyl)-7-nitro-1H-indol-5-yl)sulfonyl)benzamide], in that order: 12 nM and 1 nM.
Consider `CN(C)C[C@@H]1COc2cc(S(=O)(=O)NC(=O)c3ccc(N4CCN(CC5=C(c6ccc(Cl)cc6)CC(C)(C)CC5)CC4)cc3Oc3cnc4[nH]ccc4c3)cc([N+](=O)[O-])c2N1` [Example 2-7, (R)-2-((1H-pyrrolo[2,3-b]pyridin-5-yl)oxy)-4-(4-((4′-chloro-5,5-dimethyl-3,4,5,6-tetra-hydro-[1,1′-biphenyl]-2-yl)methyl)piperazin-1-yl)-N-((3-((dimethylamino)methyl)-5-nitro-3,4-dihydro-2H-benzo[b][1,4]oxazin-7-yl)sulfonyl)benzamide], for which the IC50 amounted to 95 nM with DOHH2 cells (Homo sapiens, DOHH-2, 120 h) and 72 nM with RS4;11 cells (Homo sapiens, RS4-11, 72 h).
With `CC1(C)CCC(CN2CCN(c3ccc(C(=O)NS(=O)(=O)c4cc5c(c([N+](=O)[O-])c4)N[C@@H](CCO)CS5)c(Oc4cnc5[nH]ccc5c4)c3)CC2)=C(c2ccc(Cl)cc2)C1` [Example 3-15, (S)-2-((1H-pyrrolo[2,3-b]pyridin-5-yl)oxy)-4-(4-((4′-chloro-5,5-dimethyl-3,4,5,6-tetra-hydro-[1,1′-biphenyl]-2-yl)methyl)piperazin-1-yl)-N-((3-(2-hydroxyethyl)-5-nitro-3,4-dihydro-2H-benzo[b][1,4]thiazin-7-yl)sulfonyl) benzamide], the concentration for half-maximal inhibition (IC50) with DOHH2 cells (Homo sapiens, DOHH-2, 120 h) came to 48 nM; with RS4;11 cells (Homo sapiens, RS4-11, 72 h) it was 13 nM.
Consider `COC1CCC(C[C@H]2COc3cc(S(=O)(=O)NC(=O)c4ccc(N5CCN(CC6=C(c7ccc(Cl)cc7)CC(C)(C)CC6)CC5)cc4Oc4cnc5[nH]ccc5c4)cc([N+](=O)[O-])c3N2)CC1` (stereo partly drawn) [Example 2-246B, (S)-2-((1H-pyrrolo[2,3-b]pyridin-5-yl)oxy)-4-(4-((4′-chloro-5,5-dimethyl-3,4,5,6-tetra-hydro-[1,1′-biphenyl]-2-yl)methyl)piperazin-1-yl)-N-((3-((4-methoxycyclohexyl)meth-yl)-5-nitro-3,4-dihydro-2H-benzo[b][1,4]oxa-zin-7-yl)sulfonyl)benzamide], for which the IC50 in the test on DOHH2 cells (Homo sapiens, DOHH-2, 120 h) came out at 13 nM; in the test with RS4;11 cells (Homo sapiens, RS4-11, 72 h), 29 nM.
